Read-outs that look alike come from different tables or passages of the source.
Key:
[1] = system: nAChR mediating nicotine-evoked [^3H]DA release (α3β2* receptor subtype); format: cell-based, rat; conditions: rat striatal slices, nicotine 10 μM; read-out: IC50, S-(−)-nicotine-evoked [^3H]DA release
Procedure: Slices were rinsed with 15 mL of fresh buffer and incubated for an additional 30 minutes in fresh buffer containing 0.1 μM [^3H]DA (6 slices/3 ml). Subsequently, slices were rinsed with 15 ml of fresh buffer and transferred to a glass superfusion chamber.
Radioactivity in the superfusate and tissue samples was determined by liquid scintillation spectroscopy. […] Basal [^3H]outflow was calculated from the average of the tritium collected in the two five minute samples just before addition of the bis-alkyl pyridino analog. […] [^3H]Overflow was calculated by subtracting the [^3H]outflow during an equivalent period of prestimulation from the values in samples collected during and after drug exposure. Inasmuch as the radiolabelled compounds were not separated and identified, the tritium collected in superfusate is referred to as either [^3H]outflow or [^3H]overflow, rather than as [^3H]DA.

[2] = molecular target: T1, α7-type neuronal nicotinic acetylcholine receptors (Rattus norvegicus, UniProt Q05941); assay: biochemical; conditions: rat brain membranes, 2.5 nM [^3H]-MLA; read-out: Ki, [^3H]MLA binding
T1 construct: Rat brain was dissected into the whole brain tissue without cortex, striatum and cerebellum; from tissue; host or cells: rat brain (without cortex, striatum, cerebellum) membranes

[3] = molecular target: T2, Rat Striatal Nicotinic Acetylcholine Receptors ([^3H]nicotine binding sites) (Rattus norvegicus, UniProt P09483+P12390); assay: biochemical; conditions: rat striatal membranes, 3 nM [^3H]-nicotine; read-out: Ki, specific binding of [^3H]-nicotine
T2 construct: Striata from two rats were dissected, pooled, and homogenized; from tissue; host or cells: rat striatum membranes
Procedure: Striata from two rats were dissected, pooled, and homogenized with a Tekmar polytron in 10 volumes of ice-cold modified Krebs-HEPES buffer (20 mM HEPES, 118 mM NaCl, 4.8 mM KCl, 2.5 mM CaCl2, 1.2 mM MgSO4, adjusted to pH 7.5). The homogenates were incubated at 37° C. for five minutes and centrifuged at 15,000 g for 20 minutes. The pellet was resuspended in ten volumes of ice-cold MilliQ water, incubated for five minutes at 37° C., and centrifuged at 15,000 g for 20 minutes The second pellet was then resuspended in ten volumes of fresh ice-cold 10% Krebs-HEPES buffer, incubated at 37° C., and centrifuged at 15,000 g for 20 minutes. The latter sequence of resuspension, incubation, and centrifugation was repeated. The pellet was frozen under fresh 10% Krebs-HEPES buffer and stored at −40° C. until assay. Upon assay, the pellet was resuspended in the Krebs-HEPES buffer, incubated at 37° C. for five minutes, and centrifuged at 15,000 g for 20 minutes. The final pellet was resuspended in 3.6 ml ice-cold MilliQ water which provided for approximately 200 μg protein per 100 μl aliquot. Competition assays were performed in duplicate in a final volume of 200 μl Krebs-HEPES buffer containing […] Tris buffer (pH 7.5 at 4° C.). […] After a 90 minute incubation at 4° C., reactions were terminated by dilution of the samples with 3 ml of ice-cold Krebs-HEPES buffer followed immediately by filtration through Whatman GF/B glass fiber filters (presoaked in 0.5% polyethyleneimine) using a Brandel Cell Harvester. Filters were rinsed three times with 3 ml of ice-cold Krebs-HEPES buffer, transferred to scintillation vials, and 5 ml scintillation cocktail (Research Products International Corp., Mt. Prospect, Ill.) added. […] Binding parameters were determined using the weighted, least squares non-linear regression.

[4] = molecular target: T1, α7-type neuronal nicotinic acetylcholine receptors; format: binding; conditions: rat brain membranes, […] [^3H]-MLA; read-out: Ki, [^3H]MLA binding
Procedure: Rat brain was dissected into the whole brain tissue without cortex, striatum and cerebellum and was frozen in liquid nitrogen and stored at −70° C. until use.
The brain tissue was homogenized with a Tekmar Polytron (setting 40) in 20 volumes of ice-cold hypotonic buffer (2 mM HEPES, 14.4 mM NaCl, 0.15 mM KCl, 0.2 mM CaCl2 and 0.1 mM MgSO4, pH=7.5). The homogenate was incubated at 37° C. for ten minutes and centrifuged at 25,000×g for 15 minutes at […] The pellet was washed three times more by resuspension in the 20 volumes of the same buffer and centrifugation at the above parameters. The final pellet was stored at −20° C. under 4.6 ml of the incubation buffer and was suspended just before the incubation with radioligand.
[^3H]MLA (25.4 Ci/mmol) was purchased from Tocris Cookson Ltd., Bristol, U.K. Binding was performed in duplicate, in a final volume of 250 μl of the incubation medium, containing 20 mM HEPES, 144 mM NaCl, 1.5 mM KCl, 2 mM CaCl2, 1 mM MgSO4 and 0.05% BSA, pH=7.5. Reaction was initiated by the addition of 100 μl of membrane suspension to the samples containing a desired concentration of test compounds and […] [^3H] MLA (final concentration) and incubated for 2 hours at room temperature. […] The binding reaction was terminated by dilution of samples with 3 ml of ice-cold incubation buffer followed by immediate filtration through presoaked in 0.5% polyethylenimine glass fiber filters (S&S, grade #32) using a Brandel harvester system. Filters were rinsed three times with 3 ml of ice-cold buffer, transferred to scintillation-vials and 4 ml of scintillation cocktail was added. Protein was measured using the Bradford dye-binding procedure with bovine serum albumin as the standard.

[5] = system: nAChR subtypes mediating nicotine-evoked [^3H]-dopamine overflow
Procedure: [^3H]-Dopamine overflow from superfused striatal slices. […] Striatal coronal slices (500 μm, 4-6 mg) were obtained and incubated for 30 minutes in Krebs' buffer (in mM: 118 NaCl, 4.7 KCl, 1.2 MgCl2, 1 NaH2PO4, 1.3 CaCl2, 11.1 glucose, 25 NaHCO3, 0.11 L-ascorbic acid and 0.004 disodium EDTA, pH 7.4, saturated with 95% O2/5% CO2) in a metabolic shaker at 34° C. Slices were incubated with 0.1 μM (final concentration) of [^3H]-dopamine during the latter 30 minutes of the 60-minute incubation period. Each slice was transferred to a glass superfusion chamber maintained at 34° C. and superfused (1 ml/min) with Krebs' buffer containing nomifensine (10 μM) and pargyline (10 μM) to inhibit [^3H]-dopamine reuptake after release into the extracellular space, ensuring that [^3H]-overflow primarily represented [^3H]-dopamine. Sample collection (5-minute; 5 mL) began after 60 minutes of superfusion. […] At the end of the experiment, each slice was solubilized, and the [^3H]-content of the tissue determined. Release during each minute was normalized for total tissue [^3H]-content. Analog-induced intrinsic activity and inhibitory activity were determined using slices from the same rat (repeated-measures design).
The amount of [^3H] in each sample was calculated by dividing the total [^3H] collected in each sample by the total in the tissue at the time of sample collection (defined as fractional release). […] Data were analyzed by weighted, least squares regression analysis of the sigmoidal concentration-effect curves to obtain EC50 and IC50 values.
Striatal slices (500 μm, 4-6 mg) were incubated for 30 minutes in Krebs' buffer (in mM: 118 NaCl, 4.7 KCl, 1.2 MgCl2, 1 NaH2PO4, 1.3 CaCl2, 11.1 glucose, 25 NaHCO3, 0.11 L-ascorbic acid and 0.004 disodium EDTA, pH 7.4, saturated with 95% O2/5% CO2) in a metabolic shaker at 34° C. Slices were incubated with 0.1 μM (final concentration) [^3H]DA during the latter 30 minutes of the 60-minute incubation period. Each slice was transferred to a glass superfusion chamber maintained at 34° C. and superfused (1 ml/min) with Krebs' buffer containing nomifensine (10 μM) and pargyline (10 μM) to inhibit [^3H]DA reuptake and metabolism, respectively, after release into the extracellular space, ensuring that [^3H]overflow primarily represents [^3H]DA. Sample collection (5-minute; 5 ml) began after 60 minutes of superfusion. […] Thus, the ability of these analogs to elicit intrinsic activity (evoke [^3H]DA overflow) was determined. At the end of the experiment, each slice was solubilized and [^3H]content of the tissue determined. Release during each minute was normalized for total [^3H]content of the slice. Analog-induced intrinsic activity and inhibitory activity were determined using slices from the same rat (repeated-measures design).
Fractional release was calculated by dividing the total tritium collected in each sample by the total tritium in the tissue at the time of sample collection. […] Typically, data were analyzed by weighted, least squares regression analysis of sigmoidal concentration-effect curves to obtain EC50 and IC50 values.

α4β2* nAChRs = α4β2* nAChRs (Rattus norvegicus, UniProt P09483+P12390)
Procedure: Whole brain, excluding cortex and cerebellum, was homogenized in 20 ml of ice-cold buffer, containing (in mM): 2 HEPES, 11.8 NaCl, 0.48 KCl, 0.25 CaCl2 and 0.12 MgSO4, pH 7.5. Homogenate was centrifuged (25,000 g, 15 minutes, 4° C.). Pellets were resuspended in 20 ml of buffer and incubated at 37° C., for ten minutes, cooled to 4° C. and centrifuged (25,000 g, 15 minutes, 4° C.). Pellets were resuspended and centrifuged using the same conditions. Final pellets were stored in assay buffer, containing (in mM): 20 HEPES, 118 NaCl, 4.8 KCl, 2.5 CaCl2, and 1.2 MgSO4) pH 7.5 at −70° C. Upon use, final pellets were resuspended in ˜20 ml assay buffer. […] Control was in the absence of analog. […] Incubations proceeded for 60 minutes at room temperature using 96-well plates and were terminated by harvesting on Unifilter-96 GF/B filter plates presoaked in 0.5% polyethylenimine, using a Packard FilterMate harvester.
After washing five times with 350 μl ice-cold assay buffer, filter plates were dried (60 minutes, 49° C.), bottom-sealed, and filled with Packard's MicroScint 20 cocktail (40 μl/well). After 60 minutes, filter plates were top-sealed, and radioactivity determined using a Packard TopCount. Protein concentrations were determined using bovine serum albumin as the standard.
Whole brain was homogenized in 20 ml of ice-cold buffer (in mM: 2 HEPES, 11.8 NaCl, 0.48 KCl, 0.25 CaCl2, and 0.12 MgSO4, pH 7.5). Homogenates were centrifuged (25,000 g, 15 minutes, 4° C.). Pellets were resuspended in 20 ml of buffer and incubated at 37° C., for 10 minutes, cooled to 4° C. and centrifuged (25,000 g, 15 minutes, 4° C.). Pellets were resuspended and centrifuged again using the same conditions. Final pellets were stored at −70° C. in assay buffer (in mM: 20 HEPES, 118 NaCl, 4.8 KCl, 2.5 CaCl2, and 1.2 MgSO4, pH 7.5). Upon use, final pellets were resuspended in ˜20 ml assay buffer. […] Control was in the absence of analog. […] Incubation proceeded for 60 minutes at room temperature using 96-well plates and was terminated by harvesting on Unifilter-96 GF/B filter plates, presoaked in 0.5% polyethylenimine, using a Packard FiterMate harvester. After washing 5× with 350 μl ice-cold assay buffer, filter plates were dried (60 minutes, 49° C.), bottom-sealed, and filled with Packard's MicroScint 20 cocktail (40 μl/well). After 60 minutes, filter plates were top-sealed, and radioactivity determined. Protein concentration was determined using BSA as the standard.

[6] = read-out: Nicotine-evoked [^3H]DA Overflow IC50, Table 5, mean (95% confidence interval)

T1 sequence (Q05941 23-502): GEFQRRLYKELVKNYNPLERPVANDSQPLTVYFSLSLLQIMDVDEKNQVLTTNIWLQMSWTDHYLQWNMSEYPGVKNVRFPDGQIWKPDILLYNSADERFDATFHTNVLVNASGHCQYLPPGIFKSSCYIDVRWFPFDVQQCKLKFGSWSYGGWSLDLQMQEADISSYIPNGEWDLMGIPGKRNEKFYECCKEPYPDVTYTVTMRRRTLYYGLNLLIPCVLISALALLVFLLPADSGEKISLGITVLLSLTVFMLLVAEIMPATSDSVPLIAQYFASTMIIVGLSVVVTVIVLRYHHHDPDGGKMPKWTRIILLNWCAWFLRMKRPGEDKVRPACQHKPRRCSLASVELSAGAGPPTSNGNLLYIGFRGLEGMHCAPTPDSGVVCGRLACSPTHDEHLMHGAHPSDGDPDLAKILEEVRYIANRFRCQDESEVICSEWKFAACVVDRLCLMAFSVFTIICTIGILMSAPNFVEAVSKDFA
T2 sequence (P09483 31-630): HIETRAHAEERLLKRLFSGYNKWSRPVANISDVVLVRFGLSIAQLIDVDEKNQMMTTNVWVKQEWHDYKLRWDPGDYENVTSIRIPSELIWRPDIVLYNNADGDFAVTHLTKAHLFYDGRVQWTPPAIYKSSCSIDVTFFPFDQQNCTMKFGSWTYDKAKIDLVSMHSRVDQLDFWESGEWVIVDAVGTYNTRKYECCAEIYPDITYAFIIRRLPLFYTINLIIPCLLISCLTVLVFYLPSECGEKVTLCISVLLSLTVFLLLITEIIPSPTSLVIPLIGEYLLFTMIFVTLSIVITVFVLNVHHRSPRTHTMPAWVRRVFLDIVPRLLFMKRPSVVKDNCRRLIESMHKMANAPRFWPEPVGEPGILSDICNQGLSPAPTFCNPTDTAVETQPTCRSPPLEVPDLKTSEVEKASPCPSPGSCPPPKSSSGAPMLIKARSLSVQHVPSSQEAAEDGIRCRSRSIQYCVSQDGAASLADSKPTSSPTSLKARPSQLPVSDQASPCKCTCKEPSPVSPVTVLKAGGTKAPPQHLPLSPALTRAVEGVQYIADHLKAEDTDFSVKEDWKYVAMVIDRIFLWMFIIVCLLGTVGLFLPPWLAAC
T2 sequence (P12390 25-500): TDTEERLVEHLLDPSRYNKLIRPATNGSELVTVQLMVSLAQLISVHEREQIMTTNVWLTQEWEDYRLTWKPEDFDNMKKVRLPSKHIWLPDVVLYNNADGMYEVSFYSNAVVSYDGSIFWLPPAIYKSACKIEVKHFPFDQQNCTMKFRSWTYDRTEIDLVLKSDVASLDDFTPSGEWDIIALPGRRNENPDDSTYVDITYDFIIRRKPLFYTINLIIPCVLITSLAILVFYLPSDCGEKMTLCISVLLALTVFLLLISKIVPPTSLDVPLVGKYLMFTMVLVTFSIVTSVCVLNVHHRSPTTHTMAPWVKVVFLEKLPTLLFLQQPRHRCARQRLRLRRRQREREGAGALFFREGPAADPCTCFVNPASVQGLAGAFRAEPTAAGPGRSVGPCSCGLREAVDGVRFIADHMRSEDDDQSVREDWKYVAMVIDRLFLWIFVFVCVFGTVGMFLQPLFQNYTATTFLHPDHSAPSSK
Sequence of α4β2* nAChRs (P09483 31-630): as the sequence (P09483 31-630) above
Sequence of α4β2* nAChRs (P12390 25-500): as the sequence (P12390 25-500) above

| SMILES | IC50 [1] | Ki [3] | also measured |
| --- | --- | --- | --- |
| c1ccc2c[n+](CCCCCCCCCC[n+]3ccc4ccccc4c3)ccc2c1 [bIQDI, N,N′-Decane-1,10-diyl-bis-isoquinolinium Diiodide] | 2.62 µM | – | Ki [2]: 5.5 µM |
| c1ccc2c[n+](CCCCCCCCC[n+]3ccc4ccccc4c3)ccc2c1 [bIQNB, N,N′-Nonane-1,9-diyl-bis-isoquinolinium Dibromide] | 1.61 µM | > 100 µM | Ki [2]: 13.1 µM |
| c1cc[n+](CCCCCCCCC[n+]2ccccc2)cc1 [bPNB, N,N′-Nonane-1,9-diyl-bis-pyridinium Dibromide] | > 100 µM | 24.1 µM | – |
| c1ccc2c[n+](CCCCCC[n+]3ccc4ccccc4c3)ccc2c1 [bIQHxI, N,N′-Hexane-1,6-diyl-bis-isoquinolinium Diiodide] | > 100 µM | 17.9 µM | Ki [4]: 16 µM |
| c1ccc2c[n+](CCCCCCCC[n+]3ccc4ccccc4c3)ccc2c1 [bIQOI, N,N′-Octane-1,8-diyl-bis-isoquinolinium Diiodide] | 51.9 µM | > 100 µM | Ki [2]: 8.55 µM |
| CCCCCCCC[n+]1cccc(C)c1 [NOPiI] | – | – | IC50 ([5]; read-out: Nicotine-evoked [^3H]DA Overflow IC50, Table 9, mean (standard error)): 1 µM |
| CN1CCC[C@H]1c1ccc[n+](CCCCCC[n+]2cccc([C@@H]3CCCN3C)c2)c1 [bNHxI, N,N′-Hexane-1,6-diyl-bis-nicotinium Diiodide] | > 100 µM | – | – |
| CN1CCC[C@H]1c1ccc[n+](CCCCCCCCC[n+]2cccc([C@@H]3CCCN3C)c2)c1 [bNNB, N,N′-Nonane-1,9-diyl-bis-nicotinium Dibromide] | > 100 µM | 4.31 µM | – |
| CCCCCCCCCCC[n+]1cccc2c1CCC1CCN(C)C21 (stereo not drawn) [BCU] | – | – | IC50 ([5]; read-out: Nicotine-evoked [^3H]DA Overflow IC50, Table 6, mean (standard error)): 0.04 µM |
| c1cc[n+](CCCCCC[n+]2ccccc2)cc1 [bPHxI, N,N′-Hexane-1,6-diyl-bis-pyridinium Diiodide] | > 100 µM | 97.8 µM | – |
| CN1CCC[C@H]1c1ccc[n+](CCCCCCCC[n+]2cccc([C@@H]3CCCN3C)c2)c1 [bNOI, N,N′-Octane-1,8-diyl-bis-nicotinium Diiodide] | 19.1 µM | 1.5 µM | – |
| CN1CCCC1c1ccc[n+](CCCCCCCCCC[n+]2cccc(C3CCCN3C)c2)c1 (stereo not drawn) [bNDI, N,N′-Decane-1,10-diyl-bis-nicotinium Diiodide] | > 100 µM | 0.28 µM | Ki [2]: > 100 µM |
| CCCCCCCCCCCC[n+]1cccc(C2CCCN2C)c1 (stereo not drawn) [NDDNI] | – | – | Ki (α4β2* nAChRs): 0.14 µM; potency relative to DHβE as inhibitor of nAChRs mediating nicotine-evoked dopamine release [5]: at least two orders of magnitude more potent; IC50 ([5]; read-out: IC50, inhibition of nicotine-evoked [^3H]dopamine release/overflow): 0.009 µM |
| CCCCCCCCCCCC[n+]1ccccc1 [NDDPI] | – | – | IC50 [5, 6]: 0.26 µM |
| c1cc[n+](CCCCCCCCCC[n+]2ccccc2)cc1 [bPDI, N,N′-Decane-1,10-diyl-bis-pyridinium Diiodide] | > 1 µM | 18.6 µM | – |
| CCCCCCCCCCCCCCC[n+]1ccccc1 [NPDPB] | – | – | Ki (α4β2* nAChRs; read-out: [^3H]Nicotine Binding Ki, Table 5, mean (95% confidence interval)): 38 µM; IC50 [5, 6]: 0.32 µM |
